Assay results: US20260176285A1, “SALT OF DIOXANE QUINOLINE COMPOUND, CRYSTAL FORM THEREOF, PREPARATION METHODS THEREFOR AND USES THEREOF” (Beijing Scitech-MQ Pharmaceuticals Limited, priority 2022, published 2026)

Tests used:
[1] = Dynamic solubility in water, SGF, FaSSIF and FeSSIF; assay type: physicochemical; design: S (dynamic solubility): unit not given here; conditions: listed as Phosphate salt crystal form A-V; for S (dynamic solubility): 37° C., feed 10 mg/mL
Summary of the method: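 Free form and salt crystal forms tested over time in water, SGF (pH 1.8), FaSSIF (pH 6.5) and FeSSIF (pH 5.0), simulated fluids made with SIF powder. At each time point samples were centrifuged, passed through 0.45 μm PTFE, and filtrate concentration (HPLC) and pH measured.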

[2] = Hygroscopicity by dynamic moisture sorption (DVS); assay type: physicochemical; conditions: DVS, listed as Phosphate salt crystal form A-V
Summary of the method: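 Mass change of salt and free-form crystal samples recorded at 25° C over a 0% RH-95% RH-0% RH cycle. Steps were 10% RH (last step 5%) with a dm/dt equilibrium criterion of 0.002%/min.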

[3] = Solid-state stability evaluation (XRPD, HPLC); assay type: physicochemical; conditions: listed as Phosphate salt crystal form A-V
Method: The following 6 test samples were placed under 25° C./60% RH and 40° C./75% RH conditions for 1 week, and then the physical and chemical stability of the samples was tested by XRPD and HPLC.
At the same time, after the p-toluenesulfonate salt crystal form A-II and crystal form B-III solids were placed at 80° C. for 24 hours, the physical and chemical stability of the samples were tested by XRPD and HPLC.

[4] = test system: human lung cancer cells EBC-1; experiment: Efficacy in nude mouse tumor-bearing model of human lung cancer cells EBC-1; assay type: in vivo, Balb/c nude mouse
Summary of the method: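 Female BALB/c nude mice bearing subcutaneous EBC-1 xenografts (5×10^6 cells; 150-200 mm^3 at start), 6/group, dosed orally once daily for about 3 weeks at 15 and 7.5 mg/kg (free-base equivalent) in 0.1% CMC-Na. Tumors measured twice weekly; T/C (%) from relative tumor volume versus vehicle.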

Structure (SMILES): O=C(Nc1ccc(F)cc1)C1(C(=O)Nc2ccc(Oc3ccnc4cc(OCCCN5CCOCC5)c5c(c34)OCCO5)c(F)c2)CC1 [Example 5, N-(3-fluoro-4-((5-(3-morpholinopropoxy)-2,3-dihydro-[1,4]dioxano[2,3-f]quinolin-10-yl)oxy)phenyl)-N-(4-fluorophenyl)cyclopropane-1,1-dicarboxamide]
- S (dynamic solubility) ([1]; FaSSIF, 1 hour): 0.028
- pH of the filtrate ([1]; FaSSIF, 1 hour): 5.8
- S (dynamic solubility) ([1]; FaSSIF, 2 hours): 0.030
- pH of the filtrate ([1]; FaSSIF, 2 hours): 5.8
- S (dynamic solubility) ([1]; FaSSIF, 4 hours): 0.024
- pH of the filtrate ([1]; FaSSIF, 4 hours): 5.8
- S (dynamic solubility) ([1]; FaSSIF, 24 hours): 0.080
- pH of the filtrate ([1]; FaSSIF, 24 hours): 5.3
- S (dynamic solubility) ([1]; FeSSIF, 1 hour): 1.5
- pH of the filtrate ([1]; FeSSIF, 1 hour): 4.9
- S (dynamic solubility) ([1]; FeSSIF, 2 hours): 1.4
- pH of the filtrate ([1]; FeSSIF, 2 hours): 5.0
- S (dynamic solubility) ([1]; FeSSIF, 4 hours): 1.3
- pH of the filtrate ([1]; FeSSIF, 4 hours): 5.0
- S (dynamic solubility) ([1]; FeSSIF, 24 hours): 0.20
- pH of the filtrate ([1]; FeSSIF, 24 hours): 5.0
- S (dynamic solubility) ([1]; H2O, 1 hour): 2.5
- pH of the filtrate ([1]; H2O, 1 hour): 4.5
- S (dynamic solubility) ([1]; H2O, 2 hours): 2.6
- pH of the filtrate ([1]; H2O, 2 hours): 4.5
- S (dynamic solubility) ([1]; H2O, 4 hours): 2.4
- pH of the filtrate ([1]; H2O, 4 hours): 4.5
- S (dynamic solubility) ([1]; H2O, 24 hours): 2.5
- pH of the filtrate ([1]; H2O, 24 hours): 4.4
- S (dynamic solubility) ([1]; SGF, 1 hour): 6.9
- pH of the filtrate ([1]; SGF, 1 hour): 2.7
- S (dynamic solubility) ([1]; SGF, 2 hours): completely dissolved
- S (dynamic solubility) ([1]; SGF, 4 hours): completely dissolved
- S (dynamic solubility) ([1]; SGF, 24 hours): 6.4
- pH of the filtrate ([1]; SGF, 24 hours): 2.7
- Moisture adsorption (25° C./80% RH) ([2]; 25° C./80% RH): 6.43%
- Hygroscopicity ([2]; 25° C.): Hygroscopic
- Purity ([3]; 25° C./60% RH, 1 week): 99.13 area %
- Purity ([3]; 40° C./75% RH, 1 week): 99.13 area %
- Purity ([3]; Starting): 99.23 area %
- T/C (relative tumor proliferation rate) ([4]; 7.5 mg/kg oral once a day, day 3): 97.1%
- T/C (relative tumor proliferation rate) ([4]; 7.5 mg/kg oral once a day, day 7): 80.6%
- T/C (relative tumor proliferation rate) ([4]; 7.5 mg/kg oral once a day, day 10): 76.3%
- T/C (relative tumor proliferation rate) ([4]; 7.5 mg/kg oral once a day, day 14): 68.2%
- T/C (relative tumor proliferation rate) ([4]; 7.5 mg/kg oral once a day, day 18): 66.5%
- T/C (relative tumor proliferation rate) ([4]; 7.5 mg/kg oral once a day, day 21): 58.8%
- T/C (relative tumor proliferation rate) ([4]; 15 mg/kg oral once a day, day 3): 76.0%
- T/C (relative tumor proliferation rate) ([4]; 15 mg/kg oral once a day, day 7): 49.9%
- T/C (relative tumor proliferation rate) ([4]; 15 mg/kg oral once a day, day 10): 43.8%
- T/C (relative tumor proliferation rate) ([4]; 15 mg/kg oral once a day, day 14): 37.1%
- T/C (relative tumor proliferation rate) ([4]; 15 mg/kg oral once a day, day 18): 33.0%
- T/C (relative tumor proliferation rate) ([4]; 15 mg/kg oral once a day, day 21): 26.2%
